4 molecules from patent US20070276034A1, “Compounds, compositions and methods for the treatment of synucleinopathies” (priority 2002, published 2007) can be followed below.

SMILES strings stand for the structures. Where two headings read alike, the source gives them in different places.

Holding throughout (format): biochemical
In experiment [1] the target is T1, Aβ 1-42 fibrils (Homo sapiens, UniProt P05067).
T1 construct: purchased Bachem Inc
In words: Circular dichroism spectroscopy of Aβ 1-42 fibrils. The following applies: for disruption of β-sheet structure in Aβ 1-42 fibrils (CD minima at 218 nm): 3 days co-incubation, 25 μM Aβ 1-42 (FIG. 1, FIG. 2); for dose-response of disruption of β-sheet structure of Aβ 1-42 fibrils (CD minima at 218 nm): Aβ:test compound wt/wt ratios of 1:0.1, 1:1 and 1:10 (FIG. 3). How it is done:
Circular dichroism (CD) spectroscopy is a method that can be used to determine the effects of test compounds to disrupt the secondary structure conformation of amyloid fibrils. In one study, as described in this example, circular dichroism spectroscopy was used to determine the effects of different compounds of the invention on β-sheet conformation of Aβ 1-42 fibrils. For this study, Aβ 1-42 (Bachem Inc., Torrance, Calif.) was first dissolved in a 2 mM NaOH solution, maintaining the pH of these solutions above 10. […] Aβ 1-42 was then incubated at 37° C. in the absence or presence of different compounds at an Aβ:test compound wt/wt ratios of 1:0.1, 1:1 and 1:10. After 3 days of incubation, CD spectra were recorded on a Jasco 810 spectropolarimeter (Easton, Md.). All CD spectra were collected with 0.05 cm quartz cells. Wavelength traces were scanned from 190-260 nm at 0.5 nm increments with a bandwidth of 5 nm, at a scan speed of 10 nm/minute, a response time of 32 seconds, and a data pitch of 0.5 nm. The whole system was equilibrated and continuously flushed with nitrogen at 10 ml/minute. […] Ellipticity in degrees was converted to MRE ([Q]; molar residue ellipticity) using the formula [Q]=100•[…]; where Q is the ellipticity in degrees; […]

Experiment [2] has as its target T2, IAPP fibrils (Homo sapiens, UniProt P10997).
T2 construct: purchased Bachem Inc
T2 sequence (P10997 34-70 limits assumed): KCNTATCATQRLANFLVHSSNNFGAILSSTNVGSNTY
In words: Congo red binding assay with IAPP fibrils. The following applies: 3-day incubation. How it is done:
(§1) In the Congo red binding assay the ability of a given test compound to alter amyloid (in this case, IAPP) binding to Congo red is quantified. In this assay, IAPP and test compounds were incubated for 3 days and then vacuum filtered through a 0.2 μm filter. The amount of IAPP retained in the filter was then quantitated following staining of the filter with Congo red. After appropriate washing of the filter, any lowering of the Congo red color on the filter in the presence of the test compound (compared to the Congo red staining of the amyloid protein in the absence of the test compound) was indicative of the test compound's ability to diminish/alter the amount of aggregated and congophilic IAPP.
In the study, the ability of IAPP fibrils to bind Congo red in the absence or presence of increasing amounts of the compounds or EDTA (at IAPP:test compound weight ratios of 1:1, 1:0.1, 1:0.01 or 1:0.001) was determined.

Experiment [3] has as its target T1, Aβ 1-42 fibrils. In words: Thioflavin T fluorometry - disruption of pre-formed Aβ 1-42 Alzheimer's fibrils. The following applies: 25 μM pre-fibrillized Aβ 1-42, 37° C., 3 days, read-out: % Inhibition Aβ (result ± S.D.). The source says: In one study, Thioflavin T fluorometry was used to determine the effects of the compounds, and of EDTA (as a negative control). In this assay Thioflavin T binds specifically to fibrillar amyloid, and this binding produces a fluorescence enhancement at 485 nm that is directly proportional to the amount of amyloid fibrils formed. The higher the fluorescence, the greater the amount of amyloid fibrils formed (Naki et al., Lab. Invest. 65:104-110, 1991; Levine III, Protein Sci. 2:404-410, 1993; Amyloid: Int. J. Exp. Clin. Invest. 2:1-6, 1995).
(§2) In this study, 25 μM of pre-fibrillized Aβ 1-42 (Bachem Inc) was incubated at 37° C. for 3 days either alone, or in the presence of one of the compounds or EDTA (at Aβ:test compound weight ratios of 1:1, 1:0.1, 1:0.01 or 1:0.001). Following 3-days of co-incubation, 50 μl of each incubation mixture was transferred into a 96-well microtiter plate containing 150 μl of distilled water and 50 μl of a Thioflavin T solution (i.e. 500 mM Thioflavin T in 250 mM phosphate buffer, pH 6.8). The fluorescence was read at 485 nm (444 nm excitation wavelength) using an ELISA plate fluorometer after subtraction with buffer alone or compound alone, as blank.

The target in experiment [4] is T2, IAPP fibrils. In words: Thioflavin T fluorometry - disruption of type 2 diabetes IAPP fibrils. The following applies: 25 μM pre-fibrillized IAPP, 37° C., 3 days, read-out: % Inhibition IAPP (result ± S.D.). How it is done:
In this assay Thioflavin T binds specifically to fibrillar amyloid, and this binding produces a fluorescence enhancement at 485 nm that is directly proportional to the amount of IAPP fibrils present. The higher the fluorescence, the greater the amount of IAPP fibrils present (Naki et al, Lab. Invest. 65:104-110, 1991; Levine III, Protein Sci. 2:404-410, 1993; Amyloid: Int. J. Exp. Clin. Invest. 2:1-6, 1995).
as §2, with “IAPP” for “Aβ 1-42”, “IAPP:test” for “Aβ:test”

A further experiment addresses T3, monomeric Aβ 1-42 (Homo sapiens, UniProt P05067).
T3 construct: purchased Bachem Inc
In words: SDS-PAGE/Western blot of Aβ 1-42 after incubation with compounds. The following applies: 25 μM pre-fibrillized Aβ 1-42, 37° C., 3 days, 0.2 μm filtrate, antibody 6E10. As to the method:
In this latter study, triplicate samples of pre-fibrillized Aβ 1-42 (25 μM) was incubated at 37° C. for 3 days, alone or in the presence of the compounds or EDTA. Five micrograms of each sample was then filtered through a 0.2 μm filter. Protein recovered from the filtrate was then loaded, and ran on a 10-20% Tris-Tricine SDS-PAGE, blotted to nitrocellulose and detected using an Aβ-antibody (clone 6E10; Senetek).

Experiment [5] addresses T1, Aβ 1-42 fibrils. The experiment can be described thus: Congo red binding assay with Aβ 1-42 fibrils. The following applies: 3-day incubation. As to the method:
as §1, with “a” for “a given”, “Aβ)” for “IAPP)”, “Aβ 1-42” for “IAPP”, “Aβ.” for “IAPP.”
In one study, the ability of Aβ fibrils to bind Congo red in the absence or presence of increasing amounts of the compounds or EDTA (at Aβ:test compound weight ratios of 1:1, 1:0.1, 1:0.01 or 1:0.001) was determined.

Where [6] appears, read: IAPP:test compound wt/wt ratio 1:0.001.
[7] abbreviates: IAPP:test compound wt/wt ratio 1:0.01.
Where [8] appears, read: IAPP:test compound wt/wt ratio 1:0.1.
Where [9] appears, read: IAPP:test compound wt/wt ratio 1:1.
[10] abbreviates: Aβ:test compound wt/wt ratio 1:0.001.
[11] abbreviates: Aβ:test compound wt/wt ratio 1:0.01.
Setting [12] is: Aβ:test compound wt/wt ratio 1:0.1.
The mark [13] stands for this setting: Aβ:test compound wt/wt ratio 1:1.

T1 sequence (P05067 672-713): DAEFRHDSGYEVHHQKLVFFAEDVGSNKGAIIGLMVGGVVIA
T3 sequence (P05067 672-713): as above

Consider `O=C(C=Cc1ccc(O)c(O)c1)NCc1ccc(O)c(O)c1` [Compound 61, 3,4-dihydroxycinnamic acid 3,4-dihydroxybenzylamide], for which the “disruption of β-sheet structure in Aβ 1-42 fibrils (CD minima at 218 nm)” value on Aβ 1-42 fibrils [1] is recorded as “marked disruption of β-sheet structure”. Moreover, on Aβ 1-42 fibrils [1], the “dose-response of disruption of β-sheet structure of Aβ 1-42 fibrils (CD minima at 218 nm)” value is reported as “dose-dependent decrease in the minima”. Besides, the “% Inhibition IAPP (result ± S.D.), Congo red binding” value (shortened to “% Inhibition IAPP”) stood at 0.0 ± 3.87% on IAPP fibrils [2] (setting [6]), 4.0 ± 1.78% on IAPP fibrils [2] (setting [7]), 0.0 ± 7.07% on IAPP fibrils [2] (setting [8]) and 23.7 ± 0.39% on IAPP fibrils [2] (setting [9]). The inhibition on Aβ 1-42 fibrils [3] (setting [10]) amounted to 26 ± 7.51%; on Aβ 1-42 fibrils [3] (setting [11]), 16.9 ± 1.39%; on Aβ 1-42 fibrils [3] (setting [12]) it was 80.1 ± 4.76%; on Aβ 1-42 fibrils [3] (setting [13]) it was 100 ± 0.41%; at IAPP fibrils [4] (setting [6]) it was 0.5 ± 6.33%; at IAPP fibrils [4] (setting [7]), 35.4 ± 5.68%. Besides, the inhibition on IAPP fibrils [4] (setting [8]) came to 83.6 ± 1.27%; on IAPP fibrils [4] (setting [9]) it was 96.8 ± 0.47%.

On to `O=C(NCCc1ccc(O)c(O)c1)Nc1ccc(O)c(O)c1` [Compound 78, 1-(3,4-dihydroxyphenyl)-3-(3,4-dihydroxyphenethyl)urea], for which the “detection of Aβ 1-42 monomers (~4 kilodalton band) on Western blot” value on monomeric Aβ 1-42 was “not detected”. Also, on Aβ 1-42 fibrils [1], the “disruption of β-sheet structure in Aβ 1-42 fibrils (CD minima at 218 nm)” value is on record as “marked decrease in the minima”. Also, the “% Inhibition IAPP” value on IAPP fibrils [2] (setting [6]) was determined as 6.6 ± 3.04%; at IAPP fibrils [2] (setting [7]), 19.9 ± 2.12%; on IAPP fibrils [2] (setting [8]) it was 16.7 ± 6.80%; at IAPP fibrils [2] (setting [9]), 56.3 ± 5.32%. Besides, the inhibition on Aβ 1-42 fibrils [3] (setting [10]) was found to be 22.4 ± 5.63%; on Aβ 1-42 fibrils [3] (setting [11]), 57.8 ± 4.63%; on Aβ 1-42 fibrils [3] (setting [12]), 89.7 ± 1.8%; on Aβ 1-42 fibrils [3] (setting [13]) it was 100 ± 0.78%; at IAPP fibrils [4] (setting [6]), 15.3 ± 4.73%; on IAPP fibrils [4] (setting [7]), 58.3 ± 1.2%. In addition, the inhibition on IAPP fibrils [4] (setting [8]) turned out to be 92.4 ± 0.27%; on IAPP fibrils [4] (setting [9]) it was 99.5 ± 0.26%.

For the molecule `Oc1ccc(CCc2ccc(O)c(O)c2)cc1O` [Compound 4, 1,2-bis(3,4-dihydroxyphenyl)ethane], at monomeric Aβ 1-42, the “detection of Aβ 1-42 monomers (~4 kilodalton band) on Western blot” value is given as “not detected”. Also, the “% Inhibition Aβ (result ± S.D.), Congo red binding” value is 16.4 ± 2.02% on Aβ 1-42 fibrils [5] (setting [11]), 46.8 ± 1.28% at Aβ 1-42 fibrils [5] (setting [12]) and 73.0 ± 0.90% on Aβ 1-42 fibrils [5] (setting [13]). In addition, the “disruption of β-sheet structure in Aβ 1-42 fibrils (CD minima at 218 nm)” value on Aβ 1-42 fibrils [1] is on record as “marked disruption of β-sheet structure”. The “% Inhibition IAPP” value at IAPP fibrils [2] (setting [6]) was 0.0 ± 1.05%; at IAPP fibrils [2] (setting [8]), 25.4 ± 4.68%; at IAPP fibrils [2] (setting [9]), 68.9±1.22%. The inhibition at Aβ 1-42 fibrils [3] (setting [10]) stood at 26.8 ± 4.8%; on Aβ 1-42 fibrils [3] (setting [12]), 97.4 ± 0.4%; at Aβ 1-42 fibrils [3] (setting [13]) it was 98.5 ± 0.77%; on IAPP fibrils [4] (setting [6]), 17.3 ± 4.07%; at IAPP fibrils [4] (setting [7]) it was 63.2 ± 2.09%; on IAPP fibrils [4] (setting [8]), 96 ± 1%. Further, on IAPP fibrils [4] (setting [9]), the inhibition is 99.7 ± 0.23%.

For the molecule `Oc1ccc(CN[C@@H]2CCCC[C@H]2NCc2ccc(O)c(O)c2)cc1O` (relative stereo) [Compound 12, N,N′-bis(3,4-dihydroxybenzyl)-trans-1,2-diaminocyclohexane], the “disruption of β-sheet structure in Aβ 1-42 fibrils (CD minima at 218 nm)” value at Aβ 1-42 fibrils [1] is recorded as “marked disruption of β-sheet structure”. The “dose-response of disruption of β-sheet structure of Aβ 1-42 fibrils (CD minima at 218 nm)” value on Aβ 1-42 fibrils [1] is reported as “dose-dependent decrease in the minima”. Further, the “% Inhibition IAPP” value at IAPP fibrils [2] (setting [6]) is 0.0 ± 2.40%; at IAPP fibrils [2] (setting [7]) it was 6.9 ± 2.45%; at IAPP fibrils [2] (setting [8]) it was 8.3 ± 0.85%; on IAPP fibrils [2] (setting [9]), 39.8 ± 0.26%. For the same molecule, the inhibition at Aβ 1-42 fibrils [3] (setting [10]) is 0%; at Aβ 1-42 fibrils [3] (setting [11]), 10.8 ± 21.9%; at Aβ 1-42 fibrils [3] (setting [12]) it was 82 ± 1.13%; on Aβ 1-42 fibrils [3] (setting [13]) it was 99.7 ± 0.17%; at IAPP fibrils [4] (setting [6]) it was 13 ± 10.3%; on IAPP fibrils [4] (setting [7]), 37.5 ± 0.76%. Besides, the figures for the inhibition on IAPP fibrils [4] (setting [8]) and at IAPP fibrils [4] (setting [9]) were 86 ± 0.76% and 99.9 ± 0.19%, respectively.
